According to publication PMC6941846 (Bioorganic & medicinal chemistry, 2019):
Read-outs that look alike come from different tables or passages of the source.

Tests used:
HEK293T cells [1] = conditions: for reduction in cell number / cells killed: inhibitor 40 nM combined with compound 56 (90 nM or 270 nM)
in vitro = conditions: human
MELK [2] = molecular target: T1, MELK (Homo sapiens, UniProt Q14680); conditions: FACS-sorted β-cells, vs vehicle; cited from earlier work
human β-cells [3] = conditions: cited from earlier work
468 kinases = assay: Kinome SCAN profile; format: binding; conditions: 100 nM
DYRK1A [4] = molecular target: T2, DYRK1A (Homo sapiens, UniProt Q13627); assay: Kinome SCAN profile, DYRK1A; format: binding; conditions: read-out: DYRK1A residual activity
human β-cells [5] = assay: Human islet β-cell replication
HEK293T cells [6] = assay: Constitutive Renilla luciferase; format: cell-based; conditions: for fold reduction of cytotoxicity (R-Luc CC50): compared to OTS167 / parent; for R-Luc CC50: HEK293T cells, constitutive Renilla luciferase drops by 50%, 48 h; for Index (CC50/EC50), Cytotoxicity / Activity Index: R-Luc CC50 / DYRK1A-Luc EC50, HEK293T
DYRK1A [7] = molecular target: T2, DYRK1A; assay: DYRK1A NFAT luciferase response assay; format: cell-based; conditions: for DYRK1A-Luc EC50: HEK293T reporter cells, NFAT-dependent firefly luciferase, 48 h
[8] = Caco-2 permeability assay; format: in vitro ADME; conditions: 10 μM, pH 7.4, direction not stated
MELK [9] = molecular target: T1, MELK; assay: MELK kinase binding assay
[10] = Microsome stability assay, human liver microsomes; format: in vitro ADME; conditions: 1 μM compound, NADPH
[11] = Microsome stability assay, mouse liver microsomes; format: in vitro ADME; conditions: 1 μM compound, NADPH

T1 sequence (Q14680 whole entry): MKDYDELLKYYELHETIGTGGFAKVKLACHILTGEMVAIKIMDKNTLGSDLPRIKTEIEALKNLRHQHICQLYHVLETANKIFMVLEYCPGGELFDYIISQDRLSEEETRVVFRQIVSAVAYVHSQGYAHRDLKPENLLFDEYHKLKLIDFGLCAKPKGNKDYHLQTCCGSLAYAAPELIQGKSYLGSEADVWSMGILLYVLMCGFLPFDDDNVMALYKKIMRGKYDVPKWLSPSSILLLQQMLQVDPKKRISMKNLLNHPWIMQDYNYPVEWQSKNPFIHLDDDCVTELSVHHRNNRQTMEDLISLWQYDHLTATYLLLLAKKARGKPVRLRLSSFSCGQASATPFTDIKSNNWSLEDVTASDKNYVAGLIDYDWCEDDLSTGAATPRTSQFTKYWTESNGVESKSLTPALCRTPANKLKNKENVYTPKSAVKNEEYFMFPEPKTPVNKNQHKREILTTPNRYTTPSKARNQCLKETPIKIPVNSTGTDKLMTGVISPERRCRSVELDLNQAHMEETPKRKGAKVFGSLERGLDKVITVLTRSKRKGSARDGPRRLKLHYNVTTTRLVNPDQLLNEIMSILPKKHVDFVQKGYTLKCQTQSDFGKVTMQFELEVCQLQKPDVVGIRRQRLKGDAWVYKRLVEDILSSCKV

Compound `O=C(NC[C@H](O)CO)c1ccncc1Nc1ccc(I)cc1F` [AS-703026] has a cells killed (HEK293T cells [1]; inhibitor 10 uM combined with 56 (90 nM), 48 h) of 6%.

For `CCN(CCO)CCCOc1ccc2c(Nc3cc(CC(=O)Nc4cccc(F)c4)[nH]n3)ncnc2c1` [AZD-1152-HQPA], the CC50 at 48 h (in vitro) was 0.0389 µM and the “reduction in cell number / cells killed” value (HEK293T cells [1]; 48 h) was 67%.

In the case of `c1cc(OCCN2CCCCC2)cc(-c2n[nH]c3ccc(-c4nc[nH]n4)cc23)c1` [CC-401], the “induction of MELK expression” value (MELK [2]) is given as 2.6 fold.

In the case of `Nc1ncnc2c1c(I)cn2[C@@H]1O[C@H](CO)[C@@H](O)[C@H]1O` [Compound 5-IT, 5-iodotubercidin], the “human β-cell replication induction-potency [ECmin]” value (human β-cells [3]) is given as ~ 100 nM.

For `CC(=O)c1cnc2ccc(-c3cc(Cl)c(O)c(Cl)c3)nc2c1N[C@H]1CC[C@H](CN(C)C)CC1` [Compound 5], the “kinases inhibited to less than 35% of baseline activity” value (468 kinases) was 189/403, the “kinases with <1% residual activity” value (468 kinases) was 69/403 and the remaining binding at 0.1 µM (DYRK1A [4]) was under 1%. The “dose range in which β-cell replication occurred” value (human β-cells [5]) was 5 to 40 nM.

For `CCOC(=O)c1cnc2ccc(-c3cc(Cl)c(O)c(Cl)c3)nc2c1N[C@H]1CC[C@H](CN(C)C)CC1` [Compound 15, Ethyl-6-(3,5-dichloro-4-hydroxyphenyl)-4-(((trans)-4 ((dimethylamino)methyl)cyclohexyl)amino)-1,5-naphthyridine-3-carboxylate], the “fold reduction of cytotoxicity (R-Luc CC50)” value (from here on “fold reduction of cytotoxicity”) (HEK293T cells [6]; HEK293T) was ~ 3 fold.

For `CN(C)C[C@H]1CC[C@H](Nc2c(C#N)cnc3ccc(-c4cc(Cl)c(O)c(Cl)c4)nc23)CC1` [Compound 16, 6-(3,5-Dichloro-4-hydroxyphenyl)-4-(((trans)-4-((dimethylamino)methyl)cyclohexyl)amino)-1,5-naphthyridine-3-carbonitrile], the “R-Luc CC50” value (HEK293T cells [6]) was “virtually non-toxic” and the “fold reduction in DYRK1A inhibition potency” value (DYRK1A [7]; compared to OTS167) was ~ 9 fold.

With `CCOC(=O)c1cnc2ccc(-c3cc(Cl)c(O)c(Cl)c3)nc2c1Nc1ccc(CN(C)C)cc1` [Compound 27, Ethyl 6-(3,5-dichloro-4-hydroxyphenyl)-4-((4-((dimethylamino)methyl)phenyl)amino)-1,5-naphthyridine-3-carboxylate] the “fold reduction of cytotoxicity” value (HEK293T cells [6]; HEK293T) was ~ 60 fold and the “DYRK1A-Luc EC50” value (DYRK1A [7]) was “maintained DYRK1A inhibition potency”.

For `CCOC(=O)c1cnc2ccc(-c3cc(Cl)c(O)c(Cl)c3)nc2c1N[C@H]1CC[C@H](C)CC1` [Compound 32, Ethyl 6-(3,5-dichloro-4-hydroxyphenyl)-4-(((trans)-4-methylcyclohexyl)amino)-1,5-naphthyridine-3-carboxylate], the “DYRK1A-Luc EC50” value (DYRK1A [7]) was “eliminated cellular activity”.

With `CCOC(=O)c1cnc2ccc(-c3cc(Cl)c(O)c(Cl)c3)nc2c1NC1CCN(C)CC1` [Compound 34, Ethyl 6-(3,5-dichloro-4-hydroxyphenyl)-4-((1-methylpiperidin-4-yl)amino)-1,5-naphthyridine-3-carboxylate] the Caco-2 [8] was 4.6 1 x 10^−6 cm/s, the “fold increase in the Cytotoxicity / Activity Index” value (HEK293T cells [6]; compared to OTS167) was ~ 13 fold and the “fold reduction of cytotoxicity” value (HEK293T cells [6]; HEK293T) was ~ 16 fold.

With `CCOC(=O)c1cnc2ccc(-c3cc(Cl)c(O)c(Cl)c3)nc2c1N1CCCCC1` [Compound 35, Ethyl 6-(3,5-dichloro-4-hydroxyphenyl)-4-(piperidin-1-yl)-1,5-naphthyridine-3-carboxylate] the “R-Luc CC50” value (HEK293T cells [6]) was “reduced cytotoxicity” and the “DYRK1A-Luc EC50” value (DYRK1A [7]) was “reduced DYRK1A inhibition potency”.

With `CCOC(=O)c1cnc2ccc(-c3cc(Cl)c(O)c(Cl)c3)nc2c1N1CCC(C)CC1` [Compound 36, Ethyl 6-(3,5-dichloro-4-hydroxyphenyl)-4-(4-methylpiperidin-1-yl)-1,5-naphthyridine-3-carboxylate] the “R-Luc CC50” value (HEK293T cells [6]) was “reduced cytotoxicity” and the “DYRK1A-Luc EC50” value (DYRK1A [7]) was “reduced DYRK1A inhibition potency”.

With `CCOC(=O)c1cnc2ccc(-c3cc(Cl)c(O)c(Cl)c3)nc2c1N1CCOCC1` [Compound 37, Ethyl 6-(3,5-dichloro-4-hydroxyphenyl)-4-morpholino-1,5-naphthyridine-3-carboxylate] the “R-Luc CC50” value (HEK293T cells [6]) was “reduced cytotoxicity” and the “DYRK1A-Luc EC50” value (DYRK1A [7]) was “reduced DYRK1A inhibition potency”.

For `CCOC(=O)c1cnc2ccc(-c3cc(Cl)c(O)c(Cl)c3)nc2c1N1CCNCC1` [Compound 38, Ethyl 6-(3,5-dichloro-4-hydroxyphenyl)-4-(piperazin-1-yl)-1,5-naphthyridine-3-carboxylate], the “fold less toxic than butyl amide counterpart (R-Luc CC50)” value (HEK293T cells [6]; HEK293T) was 7 fold, the “R-Luc CC50” value (HEK293T cells [6]) was “reduced cytotoxicity” and the “Index (CC50/EC50), Cytotoxicity / Activity Index” value (HEK293T cells [6]) was 137. The “DYRK1A-Luc EC50” value (DYRK1A [7]) was “reduced DYRK1A inhibition potency”.

In the case of `CCOC(=O)c1cnc2ccc(-c3cc(Cl)c(O)c(Cl)c3)nc2c1N[C@H]1CC[C@H](C(=O)N(C)C)CC1` [Compound 42, Ethyl 6-(3,5-dichloro-4-hydroxyphenyl)-4-(((trans)-4-(dimethylcarbamoyl)cyclohexyl)amino)-1,5-naphthyridine-3-carboxylate], the Caco-2 [8] is reported as 0.12 1 x 10^−6 cm/s.

With `CCCCNC(=O)c1cnc2ccc(-c3cc(Cl)c(O)c(Cl)c3)nc2c1N[C@H]1CC[C@H](C(=O)N2CCOCC2)CC1` [Compound 47] the Caco-2 [8] was 9.1 1 x 10^−6 cm/s.

For `CCOC(=O)c1cnc2ccc(-c3cc(Cl)c(O)c(Cl)c3)nc2c1N[C@H]1CC[C@H](CC(N)=O)CC1` [Compound 49, Ethyl 4-(((trans)-4-(2-amino-2-oxoethyl)cyclohexyl)amino)-6-(3,5-dichloro-4-hydroxyphenyl)-1,5-naphthyridine-3-carboxylate], the Caco-2 [8] was 0.01 1 x 10^−6 cm/s.

With `CCOC(=O)c1cnc2ccc(-c3cc(Cl)cc(Cl)c3)nc2c1N[C@H]1CC[C@H](CN(C)C)CC1` [Compound 50, Ethyl 6-(3,5-dichlorophenyl)-4-(((trans)-4-((dimethylamino)methyl)cyclohexyl)amino)-1,5-naphthyridine-3-carboxylate] the “DYRK1A-Luc EC50” value (DYRK1A [7]) was “abrogated DYRK1A-inhibition”.

With `CCOC(=O)c1cnc2ccc(-c3cc(C)c(O)c(C)c3)nc2c1N[C@H]1CC[C@H](CN(C)C)CC1` [Compound 52, Ethyl 4-(((trans)-4-((dimethylamino)methyl)cyclohexyl)amino)-6-(4-hydroxy-3,5-dimethylphenyl)-1,5-naphthyridine-3-carboxylate] the “Index (CC50/EC50), Cytotoxicity / Activity Index” value (HEK293T cells [6]) was over 842.

With `CCOC(=O)c1cnc2ccc(-c3ccncc3)nc2c1N[C@H]1CC[C@H](CN(C)C)CC1` [Compound 56, Ethyl 4-(((trans)-4-((dimethylamino)methyl)cyclohexyl)amino)-6-(pyridin-4-yl)-1,5-naphthyridine-3-carboxylate] the “cytotoxicity (cell number)” value (HEK293T cells [1]; 56 alone at 30 nM, 90 nM or 270 nM, 48 h) was “no cytotoxicity”, the Caco-2 [8] was 4.03 1 x 10^−6 cm/s and the Kd (MELK [9]) was 0.015 µM. The “HLM t1/2” value [10] was “readily metabolized” and the “MLM t1/2” value [11] was “readily metabolized”.

With `CCNC(=O)c1cnc2ccc(-c3ccnc(N)c3)nc2c1N[C@H]1CC[C@H](CN(C)C)CC1` [Compound 60, 6-(2-Aminopyridin-4-yl)-4-(((trans)-4-((dimethylamino)methyl)cyclohexyl)amino)-N-ethyl-1,5-naphthyridine-3-carboxamide] the “DYRK1A-Luc EC50” value (DYRK1A [7]) was “maintained good DYRK1A activity”.

With `CCOC(=O)c1cnc2ccc(-c3ccnc(N)c3)nc2c1N[C@H]1CC[C@H](CN2CCOCC2)CC1` [Compound 63, Ethyl 6-(2-aminopyridin-4-yl)-4-(((trans)-4-(morpholinomethyl)cyclohexyl)amino)-1,5-naphthyridine-3-carboxylate] the Caco-2 [8] was 2.7 1 x 10^−6 cm/s, the “HLM t1/2” value [10] was “readily metabolized” and the “MLM t1/2” value [11] was “readily metabolized”.

For `CC(C)Oc1ccc(F)c(-c2cnc(N)c(C(=O)Nc3cnccc3N3CCC[C@@H](C(=O)O)C3)n2)c1` [GNF-4877], the “human β-cell replication induction-potency [ECmin]” value (human β-cells [3]) is listed as ~ 100 nM.

In the case of `COc1ccc2c(c1)[nH]c1c(C)nccc12` [Harmine, harmine], the “human β-cell replication induction-potency [ECmin]” value (human β-cells [3]) is listed as ~ 3,000 nM.

Compound `O=C(O)[C@]1(Cc2cccc(Nc3nccs3)n2)CC[C@@H](Oc2cccc(Cl)c2F)CC1` [MK-5108] has a CC50 at 48 h (in vitro; HEK293T cells) of over 10 µM, a cells killed (HEK293T cells [1]; MK 3 μM with 56 at 30 nM, 48 h) of 31% and a cells killed (HEK293T cells [1]; MK 3 μM with 56 at 90 nM, 48 h) of 36%. For the same compound, the cells killed (HEK293T cells [1]; MK 3 μM with 56 at 270 nM, 48 h) was 34%.

With `O=C(O)c1ccc(Nc2ncc3c(n2)-c2ccc(Cl)cc2C(c2c(F)cccc2F)=NC3)cc1` [MLN-8054] the CC50 at 48 h (in vitro) was 0.0551 µM and the “reduction in cell number / cells killed” value (HEK293T cells [1]; 48 h) was 50%.

In the case of `Cn1c(=O)c(F)c(Nc2ccc(I)cc2F)c2c(=O)n(C[C@@H](O)CO)cnc21` [TAK-733], the cytotoxicity in combination (HEK293T cells [1]; TAK-733 10 uM combined with 56 (30 nM, 90 nM, or 270 nM)) is reported as “did not exhibit cytotoxicity” and the cells killed (HEK293T cells [1]; inhibitor alone at 10 uM, 48 h) is reported as “did not exhibit cytotoxicity”.
